# Laboratory results taken from patent publication US20090325975A1, “Use of compounds binding to the sigma receptor for the treatment of diabetes-associated pain” (priority 2005, published 2009).
# Experiments:
# [1] = system: mechanical allodynia in STZ-induced mice; experiment: von-Frey test, mechanical allodynia in STZ-induced diabetic mice; type: in vivo; conditions: paw withdrawal response to von-Frey filaments
# Source text: The pancreatic β-cell cytotoxic agent STZ is widely used to induce diabetes in rodents. The glucosamine-nitrosourea compound STZ is taken up into the insulin-producing β-cells of the islets of Langerhan's via the GLUT-2 glucose transporter. The cytotoxic effect of STZ is mediated through a decrease in NAD levels, and the formation of intracellular free radicals leading to various toxic effects, including DNA-strand breaks (Schnedl et al., 1994). […] STZ-induced diabetic rodents show common features of human diabetes that include damage to the eye, kidney, blood vessels, and nervous system. Diabetic neuropathic pain occurs mainly due to the damage in the nervous system (Sima and Sugimoto, 1999).
# Method: In the present study, diabetes is induced in mice by a single i.v. injection of STZ (200 mg/kg) as reported previously (Kamei et al., 1991; Rashid and Ueda, 2002). […] The plasma glucose level in the mice is measured in blood samples obtained from tail vein. […]
# Thermal hyperalgesia and mechanical allodynia is measured at different time points (1-21 days) after STZ injection. Mechanical allodynia is measured using von-Frey filaments, a well-established method known by those skilled in the art, where the paw withdrawal response is measured. Similarly, thermal hyperalgesia is measured as the latency to paw withdrawal evoked by exposing the right hind paw to a thermal stimulus. […]
# sigma-2 = sigma-2 (Homo sapiens, UniProt Q5BJF2); conditions: cited from earlier work
# sigma receptor = conditions: result in words; cited from earlier work
# sigma-1 = sigma-1 (Homo sapiens, UniProt Q99720); conditions: cited from earlier work
# sigma-1, sequence (Q99720 whole entry): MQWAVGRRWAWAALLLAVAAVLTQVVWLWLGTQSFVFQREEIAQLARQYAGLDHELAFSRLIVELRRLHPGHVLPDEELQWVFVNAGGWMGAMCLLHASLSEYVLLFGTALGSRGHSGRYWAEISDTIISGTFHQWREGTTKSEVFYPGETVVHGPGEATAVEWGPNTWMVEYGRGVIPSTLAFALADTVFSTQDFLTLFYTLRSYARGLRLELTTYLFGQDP
# sigma-2, sequence (Q5BJF2 whole entry): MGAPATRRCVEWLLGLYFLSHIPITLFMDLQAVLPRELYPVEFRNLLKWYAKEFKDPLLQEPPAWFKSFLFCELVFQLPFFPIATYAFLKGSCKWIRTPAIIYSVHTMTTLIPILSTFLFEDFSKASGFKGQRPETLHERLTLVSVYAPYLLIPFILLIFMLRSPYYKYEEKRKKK
Structure (SMILES),effect on mechanical allodynia in the von-Frey test [1],IC50 (sigma-2),affinity to the sigma receptor (sigma receptor),IC50 (sigma-1)
"CN1CCN(CCc2ccc(Cl)c(Cl)c2)CC1 [BD-1063, 1-(3,4-dichlorophenethyl)-4-methylpiperazine]",significantly antagonizes mechanical allodynia,0.8 µM,high affinity,0.03 µM
CC(C)=CCN1CCC2(C)c3cc(O)ccc3CC1C2C (centres unmarked) [pentazocine],–,–,very high affinity,–
